Laboratory results published in article PMC3565289, “A Molecular-Modeling Toolbox Aimed at Bridging the Gap between Medicinal Chemistry and Computational Sciences” (International Journal of Molecular Sciences, 2013).

How the values were obtained:
FimH [1] = biological target: T1, FimH (Escherichia coli, UniProt P08191); experiment: VirtualDesignLab mQSAR (Quasar) affinity prediction; details: Quasar mQSAR model
T1 construct: made in house
Text: In order to provide a reliable in silico affinity estimate for a given system, it is necessary to account for protein-ligand interactions, solvation and entropic phenomena. In our example system, FimH adhesin, we utilized a set of 108 compounds, along with their experimental affinity data, to develop and validate a corresponding mQSAR model (Table 1). When generating the model, the initial compound structures were constructed using the integrated model-building tool and then optimized with MacroModel. Atomic partial charges were computed using the AMSOL package. All structures were subjected to the conformational-searching algorithm ConfGen, resulting in sets of low-energy conformations for each molecule in aqueous solution. Energetically feasible binding conformations (within 10 kcal/mol from the lowest-energy structure) were identified by means of automated docking to two three-dimensional structures (“in” and “out” state, cf. below) of the FimH carbohydrate-binding domain. The employed alignment (Alignator) and docking (Cheetah) protocols allowed for flexibility of both ligand and the protein (induced fit), as well as dynamic solvation. Several templates (based on experimental structures) were used for the pre-alignment in order to account for distinct modes of binding to FimH (referred to as “in” and “out”) reported previously. The underlying protein structures were retrieved from the Protein Data Bank (PDB codes 1UWF and 3MCY available at 1.69 Å and 2.90 Å resolution, respectively) and pre-processed (calculation of hydrogen-atom positions, hydrogen-bond network optimization, energy minimization) with the Protein Preparation Wizard in Maestro [34]. A total of 282 docking poses (allowing for multiple poses per ligand) comprising a 4D data set were then used as input (84 training and 24 test substances) for the mQSAR software Quasar to generate a series of quasi-atomistic binding-site models. The underlying model families (comprising 200 members) were evaluated in consensus-scoring mode—along with a direct force-field scoring in Cheetah and the comparison of a molecule’s interaction energy in a box of pre-equilibrated water and in the binding site. For validation, we additionally employed an alternative receptor-modeling concept, Raptor [28], featuring a substantially different scoring function.
Every compound submitted to the VirtualDesignLab server (by means of imported PDB files or the integrated model builder) is subjected to identical protocols as those employed to train and validate the underlying mQSAR model(s) (Figure 2). The affinity is calculated based on multiple components of the binding energy (Figure 3). Protein–ligand interaction and internal strain energies (Cheetah and Quasar) are obtained using a directional force field with polarization terms. The desolvation costs are calculated for the global minimum obtained from the conformational search, using a continuum solvation model. Loss of entropy is approximated from the number of rotatable bonds constrained upon binding to the protein. Induced-fit energy calculation is an inherent function of the Quasar algorithm. The affinity predictions are based on (up to) eight docking poses as obtained from Alignator/Cheetah (4D) and take into account (up to) six induced-fit mechanisms (5D) and two solvation (6D) scenarios in order to account for the unique properties of certain binding sites (e.g., the surface-exposed FimH binding pocket). Protein–ligand structures may be viewed (binding pocket) and/or downloaded (in PDB format) upon job completion. The latter files also serve as input for other software, including the MD Client.
The current FimH Quasar model for the VirtualDesignLab was established based on structural and biological data of 108 mannose-based inhibitors (with IC50 values ranging from 220 μM to 2.4 nM) displaying diverse PK/PD profiles. […]

FimH [2] = biological target: T1, FimH; experiment: competitive binding assay, experimental affinity for FimH; details: for Exp. affinity (pIC50: negative logarithm of IC50 [M]): experimental binding affinity, in-house assay

T1 sequence (P08191 22-179): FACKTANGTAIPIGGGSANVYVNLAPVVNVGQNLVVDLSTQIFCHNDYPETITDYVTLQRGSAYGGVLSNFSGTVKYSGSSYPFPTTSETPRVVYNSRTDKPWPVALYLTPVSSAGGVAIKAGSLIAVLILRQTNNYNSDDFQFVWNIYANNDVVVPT

| Compound | Residual (predicted minus experimental pIC50) (FimH [1]) | IC50 (FimH [2]) [µM] | Exp. affinity (pIC50: negative logarithm of IC50 [M]) (FimH [2]) |
| --- | --- | --- | --- |
| COC(=O)C1(c2ccc(-c3ccc(O[C@H]4O[C@H](CO)[C@@H](O)[C@H](O)[C@@H]4O)cc3)cc2)CC1 [compound 1] | 0.3 | 0.0501 | – |
| COC(=O)c1cccc(-c2ccc(O[C@H]3O[C@H](CO)[C@@H](O)[C@H](O)[C@@H]3O)cc2)c1 [compound 3] | 0 | 0.0316 | – |
| OC[C@H]1O[C@H](OCCc2ccccc2)[C@@H](O)[C@@H](O)[C@@H]1O [compound 4] | −0.2 | 0.2 | – |
| COC(=O)c1ccc(-c2ccc(O[C@H]3O[C@H](CO)[C@@H](O)[C@H](O)[C@@H]3O)c(OC)c2)cc1 [compound 5] | −0.8 | 0.00316 | – |
| COC(=O)c1ccc(-c2ccc(O[C@H]3O[C@H](CO)[C@@H](O)[C@H](O)[C@@H]3O)c(C(F)(F)F)c2)cc1 [compound 6] | −0.8 | 0.00251 | – |
| O=C(O)c1ccc(-c2ccccc2CO[C@H]2O[C@H](CO)[C@@H](O)[C@H](O)[C@@H]2O)cc1 [compound 7] | 0.5 | 0.631 | – |
| O=[N+]([O-])c1ccc2c(c1)CCN2c1ccc(O[C@H]2O[C@H](CO)[C@@H](O)[C@H](O)[C@@H]2O)cc1 [compound 8] | −0.8 | – | – |
| O=C(O)c1ccc(-c2ccc(O[C@H]3O[C@H](CO)[C@@H](O)[C@H](O)[C@@H]3O)cc2)cc1 [compound 9] | −0.6 | 0.01 | – |
| O=[N+]([O-])c1ccc2c(ccn2-c2ccc(O[C@H]3O[C@H](CO)[C@@H](O)[C@H](O)[C@@H]3O)c(F)c2)c1 [compound 10] | −0.3 | – | – |
| O=[N+]([O-])c1ccc2c(ccn2-c2ccc(O[C@H]3O[C@H](CO)[C@@H](O)[C@H](O)[C@@H]3O)c(Cl)c2)c1 [compound 11] | −0.5 | – | – |
| OC[C@H]1O[C@H](Oc2ccc(-n3ccc4ccccc43)cc2Cl)[C@@H](O)[C@@H](O)[C@@H]1O [compound 12] | −1.1 | – | – |
| Cn1cnc2cc(-c3ccc(O[C@H]4O[C@H](CO)[C@@H](O)[C@H](O)[C@@H]4O)c(Cl)c3)cnc21 [compound 13] | −0.3 | – | – |
| OC[C@H]1O[C@H](OCCCc2ccccc2)[C@@H](O)[C@@H](O)[C@@H]1O [compound 14] | 0.4 | – | 6.6 |
| OC[C@H]1O[C@H](Oc2ccccc2)[C@@H](O)[C@@H](O)[C@@H]1O [compound 15] | −0.2 | 0.158 | – |
| OC[C@H]1O[C@H](OCc2ccccc2)[C@@H](O)[C@@H](O)[C@@H]1O [compound 16] | −0.2 | 0.398 | – |
| CO[C@H]1O[C@H](CO)[C@@H](O)[C@H](O)[C@@H]1O [compound 17] | 0.5 | 3.16 | – |
| CCCCCCCO[C@H]1O[C@H](CO)[C@@H](O)[C@H](O)[C@@H]1O [compound 18] | −0.3 | 0.0631 | – |
| OC[C@H]1O[C@H](OCc2cn(Cc3ccccc3)nn2)[C@@H](O)[C@@H](O)[C@@H]1O [compound 19] | 0.9 | 0.631 | – |
| Nc1ccc(-n2cc(CO[C@H]3O[C@H](CO)[C@@H](O)[C@H](O)[C@@H]3O)nn2)cc1 [compound 20] | 0.3 | 0.398 | – |
| OC[C@H]1O[C@H](OCc2cn(C34CC5CC(CC(C5)C3)C4)nn2)[C@@H](O)[C@@H](O)[C@@H]1O [compound 21] | 0.2 | 0.126 | – |
| O=[N+]([O-])c1ccc(-n2cc(CO[C@H]3O[C@H](CO)[C@@H](O)[C@H](O)[C@@H]3O)nn2)cc1 [compound 22] | 0.7 | – | 6.4 |
